The supplement of paper PMC7661543
± gives the standard deviation of the averaged measurements.

System: HCC-38
Assay: relative cell number vs DMSO control (72 h) (% of DMSO); higher = less growth inhibition (more cells)
Settings: sgRNA knockout: sgNT, 1000 nM
Protocol: (§1)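 QMAP-Seq: a pool of 5 breast cancer cell lines (ZR-75-1, SKBR3, HCC-38, MDA-MB-231, BT-20), each carrying 12 doxycycline-inducible Cas9 sgRNA perturbations (11 knockouts plus non-targeting sgNT), was treated with compounds for 72 h at four 10-fold doses (10 nM-10 uM or 1 nM-1 uM range). Barcodes were amplified and sequenced, and cell number was interpolated from 293T spike-in standard curves. The result is expressed as % of the median of DMSO wells. Two biological replicates.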

Compound `S=c1nc[nH]c2nc[nH]c12` [6-Mercaptopurine] has a relative cell number of 81.3 ± 10.

Same assay, conditions: sgRNA knockout: sgNT, 10000 nM

Compared with `Cc1cnc(Nc2ccc(OCCN3CCCC3)cc2)nc1Nc1cccc(S(=O)(=O)NC(C)(C)C)c1`, `C=CCn1c(=O)c2cnc(Nc3ccc(N4CCN(C)CC4)cc3)nc2n1-c1cccc(C(C)(C)O)n1` [MK1775] is higher in relative cell number: 11.7 ± 2.2 for the first, 29.548 ± 0.018 for the second.

`CN(C)CC[C@H](CSc1ccccc1)Nc1ccc(S(=O)(=O)NC(=O)c2ccc(N3CCN(Cc4ccccc4-c4ccc(Cl)cc4)CC3)cc2)cc1[N+](=O)[O-]` [ABT737] and `CCOc1ccccc1-n1c(C(C)N2CCN(C(=O)COc3ccc(Cl)cc3)CC2)nc2ccccc2c1=O` (stereo not given) [Erastin] are within error of each other in relative cell number: 62.5 ± 18 for the first, 60.1 ± 4.2 for the second.

`O=P1(N(CCCl)CCCl)NCCCO1` (stereo not given) [Cyclophosphamide] and `CCOC(=O)[C@@]1(CCCCCCOc2ccc(Cl)cc2)CO1` [Etomoxir] are within error of each other in relative cell number: 94.7 ± 8.6 for the first, 86.4 ± 3.9 for the second.

Compared with `Cc1ccc(Nc2nccc(N(C)c3ccc4c(C)n(C)nc4c3)n2)cc1S(N)(=O)=O` [Pazopanib], `CC(=O)Nc1cccc(-n2c(=O)n(C3CC3)c(=O)c3c(Nc4ccc(I)cc4F)n(C)c(=O)c(C)c32)c1` [Trametinib] is higher in relative cell number: 56.8 ± 1.5 for the first, 71.3 ± 2.2 for the second.

First: N.N.[Cl][Pt][Cl] [Cisplatin]
Second: S=c1nc[nH]c2nc[nH]c12 [6-Mercaptopurine]
The relative cell number of the first is higher: 93.4 ± 8.6 for the first, 61.3 ± 2.1 for the second.

Going from `Cc1cc2c(C(C)C)c(O)c(O)c(C=O)c2c(O)c1-c1c(C)cc2c(C(C)C)c(O)c(O)c(C=O)c2c1O` [Gossypol] to `COc1cccc2c1C(=O)c1c(O)c3c(c(O)c1C2=O)C[C@@](O)(C(=O)CO)C[C@@H]3O[C@H]1C[C@H](N)[C@H](O)[C@H](C)O1` [Doxorubicin], the relative cell number falls from 27 ± 1.4 to 10.8 ± 3.9.

`CCC(C)SSc1ncc[nH]1` (stereo not given) [PX12] and `CN1C(=O)C(Cc2c[nH]c3ccccc23)NC1=S` (stereo not given) [Necrostatin1] are within error of each other in relative cell number: 84.9 ± 8.4 for the first, 91.2 ± 2.3 for the second.

Compared with `CC(=O)Nc1nc(C)c(S(=O)(=O)Nc2ccc(C(O)(C(F)(F)F)C(F)(F)F)cc2)s1` [SR1001], `COC(=O)Nc1nc2cc(C(=O)c3ccccc3)ccc2[nH]1` [Mebendazole] is lower in relative cell number: 109 ± 16 for the first, 19.9 ± 0.56 for the second.

Compared with `CN1CCc2c(c3ccccc3n2Cc2ccc(C(=O)NO)cc2)C1` [TubastatinA], `O=C1NC(=O)[C@@H](c2cn3c4c(cccc24)CCC3)[C@@H]1c1c[nH]c2ccccc12` [Tivantinib] is lower in relative cell number: 66 ± 2.6 for the first, 25.8 ± 3.1 for the second.

First: CCn1c(=O)c2c(nc(/C=C/c3ccc(OC)c(OC)c3)n2C)n(CC)c1=O [Istradefylline]
Second: COc1ccc(-c2ccc3c(N4CCOCC4)nc(N4C[C@@H](C)O[C@@H](C)C4)nc3n2)cc1CO
The relative cell number of the first is higher: 106 ± 2.4 for the first, 48.9 ± 3.5 for the second.

`C[C@]12CC[C@@H]3c4ccc(O)cc4C[C@@H](CCCCCCCCC[S+]([O-])CCCC(F)(F)C(F)(F)F)[C@H]3[C@@H]1CC[C@@H]2O` (stereo not given in full) [Fulvestrant] and `O=C(NOCC(O)CO)c1cc(Br)c(F)c(F)c1Nc1ccc(I)cc1F` (stereo not given) are within error of each other in relative cell number: 94.5 ± 1.7 for the first, 86.2 ± 8.4 for the second.

`OCc1ccc(-c2ccc(-c3ccc(CO)s3)o2)s1` was tested, and the relative cell number was 63.6 ± 18.

System: MDA-MB-231
Assay: as above
Settings: sgRNA knockout: sgNT, 1 nM
Protocol: as §1

In the case of `CC(C)C[C@H](NC(=O)[C@H](CCc1ccccc1)NC(=O)CN1CCOCC1)C(=O)N[C@@H](Cc1ccccc1)C(=O)N[C@@H](CC(C)C)C(=O)[C@@]1(C)CO1` [Carfilzomib], the relative cell number is reported as 83.2 ± 3.2.

Same assay, conditions: sgRNA knockout: sgNT, 10 nM

`Cc1cnc(Nc2ccc(OCCN3CCCC3)cc2)nc1Nc1cccc(S(=O)(=O)NC(C)(C)C)c1` and `C=CCn1c(=O)c2cnc(Nc3ccc(N4CCN(C)CC4)cc3)nc2n1-c1cccc(C(C)(C)O)n1` [MK1775] are within error of each other in relative cell number: 88.9 ± 26 for the first, 81.5 ± 35 for the second.

`CN(C)CC[C@H](CSc1ccccc1)Nc1ccc(S(=O)(=O)NC(=O)c2ccc(N3CCN(Cc4ccccc4-c4ccc(Cl)cc4)CC3)cc2)cc1[N+](=O)[O-]` [ABT737] and `CCOc1ccccc1-n1c(C(C)N2CCN(C(=O)COc3ccc(Cl)cc3)CC2)nc2ccccc2c1=O` (stereo not given) [Erastin] are within error of each other in relative cell number: 96.3 ± 18 for the first, 90.4 ± 8.9 for the second.

`O=P1(N(CCCl)CCCl)NCCCO1` (stereo not given) [Cyclophosphamide] and `CCOC(=O)[C@@]1(CCCCCCOc2ccc(Cl)cc2)CO1` [Etomoxir] are within error of each other in relative cell number: 96.1 ± 29 for the first, 120 ± 25 for the second.

`Cc1ccc(Nc2nccc(N(C)c3ccc4c(C)n(C)nc4c3)n2)cc1S(N)(=O)=O` [Pazopanib] and `CC(=O)Nc1cccc(-n2c(=O)n(C3CC3)c(=O)c3c(Nc4ccc(I)cc4F)n(C)c(=O)c(C)c32)c1` [Trametinib] are within error of each other in relative cell number: 97 ± 39 for the first, 102 ± 27 for the second.

`CC(C)C[C@H](NC(=O)[C@H](CCc1ccccc1)NC(=O)CN1CCOCC1)C(=O)N[C@@H](Cc1ccccc1)C(=O)N[C@@H](CC(C)C)C(=O)[C@@]1(C)CO1` [Carfilzomib] and `COC(=O)Nc1nc2cc(C(=O)c3ccccc3)ccc2[nH]1` [Mebendazole] are within error of each other in relative cell number: 91 ± 32 for the first, 110 ± 10 for the second.

Going from `N.N.[Cl][Pt][Cl]` [Cisplatin] to `S=c1nc[nH]c2nc[nH]c12` [6-Mercaptopurine], the relative cell number rises from 95 ± 3.3 to 120 ± 2.9.

`Cc1cc2c(C(C)C)c(O)c(O)c(C=O)c2c(O)c1-c1c(C)cc2c(C(C)C)c(O)c(O)c(C=O)c2c1O` [Gossypol] and `COc1cccc2c1C(=O)c1c(O)c3c(c(O)c1C2=O)C[C@@](O)(C(=O)CO)C[C@@H]3O[C@H]1C[C@H](N)[C@H](O)[C@H](C)O1` [Doxorubicin] are within error of each other in relative cell number: 125 ± 38 for the first, 75.6 ± 18 for the second.

`CCC(C)SSc1ncc[nH]1` (stereo not given) [PX12] and `CN1C(=O)C(Cc2c[nH]c3ccccc23)NC1=S` (stereo not given) [Necrostatin1] are within error of each other in relative cell number: 104 ± 30 for the first, 97.3 ± 20 for the second.

`CC(=O)Nc1nc(C)c(S(=O)(=O)Nc2ccc(C(O)(C(F)(F)F)C(F)(F)F)cc2)s1` [SR1001] and `O=C(NOCC(O)CO)c1cc(Br)c(F)c(F)c1Nc1ccc(I)cc1F` (stereo not given) are within error of each other in relative cell number: 117 ± 5.5 for the first, 105 ± 17 for the second.

`CN1CCc2c(c3ccccc3n2Cc2ccc(C(=O)NO)cc2)C1` [TubastatinA] and `O=C1NC(=O)[C@@H](c2cn3c4c(cccc24)CCC3)[C@@H]1c1c[nH]c2ccccc12` [Tivantinib] are within error of each other in relative cell number: 81.3 ± 19 for the first, 107 ± 20 for the second.

`CCn1c(=O)c2c(nc(/C=C/c3ccc(OC)c(OC)c3)n2C)n(CC)c1=O` [Istradefylline] and `COc1ccc(-c2ccc3c(N4CCOCC4)nc(N4C[C@@H](C)O[C@@H](C)C4)nc3n2)cc1CO` are within error of each other in relative cell number: 86 ± 1.8 for the first, 85.2 ± 1.6 for the second.

Compared with `C[C@]12CC[C@@H]3c4ccc(O)cc4C[C@@H](CCCCCCCCC[S+]([O-])CCCC(F)(F)C(F)(F)F)[C@H]3[C@@H]1CC[C@@H]2O` (stereo not given in full) [Fulvestrant], `OCc1ccc(-c2ccc(-c3ccc(CO)s3)o2)s1` is higher in relative cell number: 83.6 ± 3.7 for the first, 117 ± 27 for the second.

Same assay, conditions: sgRNA knockout: sgNT, 100 nM

First: Cc1cnc(Nc2ccc(OCCN3CCCC3)cc2)nc1Nc1cccc(S(=O)(=O)NC(C)(C)C)c1
Second: Cc1ccc(Nc2nccc(N(C)c3ccc4c(C)n(C)nc4c3)n2)cc1S(N)(=O)=O [Pazopanib]
The relative cell number of the first is higher: 116 ± 5.9 for the first, 90.5 ± 16 for the second.

First: CN(C)CC[C@H](CSc1ccccc1)Nc1ccc(S(=O)(=O)NC(=O)c2ccc(N3CCN(Cc4ccccc4-c4ccc(Cl)cc4)CC3)cc2)cc1[N+](=O)[O-] [ABT737]
Second: CC(C)C[C@H](NC(=O)[C@H](CCc1ccccc1)NC(=O)CN1CCOCC1)C(=O)N[C@@H](Cc1ccccc1)C(=O)N[C@@H](CC(C)C)C(=O)[C@@]1(C)CO1 [Carfilzomib]
The relative cell number of the first is higher: 102 ± 21 for the first, 37.8 ± 22 for the second.

First: O=P1(N(CCCl)CCCl)NCCCO1 (stereo not given) [Cyclophosphamide]
Second: CCOC(=O)[C@@]1(CCCCCCOc2ccc(Cl)cc2)CO1 [Etomoxir]
The relative cell number of the first is higher: 134 ± 22 for the first, 109 ± 1.7 for the second.

First: N.N.[Cl][Pt][Cl] [Cisplatin]
Second: CCC(C)SSc1ncc[nH]1 (stereo not given) [PX12]
The relative cell number of the first is lower: 87.8 ± 8.9 for the first, 128 ± 20 for the second.

First: Cc1cc2c(C(C)C)c(O)c(O)c(C=O)c2c(O)c1-c1c(C)cc2c(C(C)C)c(O)c(O)c(C=O)c2c1O [Gossypol]
Second: COc1cccc2c1C(=O)c1c(O)c3c(c(O)c1C2=O)C[C@@](O)(C(=O)CO)C[C@@H]3O[C@H]1C[C@H](N)[C@H](O)[C@H](C)O1 [Doxorubicin]
The relative cell number of the first is higher: 87.2 ± 6.4 for the first, 19.3 ± 8.7 for the second.

Compound `CC(=O)Nc1nc(C)c(S(=O)(=O)Nc2ccc(C(O)(C(F)(F)F)C(F)(F)F)cc2)s1` [SR1001] has a relative cell number of 123 ± 15.
